How the values were obtained:
elastase = elastase (Sus scrofa, UniProt P00772); assay: in vitro; details: for remaining at 0.025 h, 60 μM / remaining at 0.05 h, 60 μM / remaining at 0.075 h, 60 μM / remaining at 0.1 h, 60 μM / remaining at 0.15 h, 60 μM / remaining at 0.25 h, 60 μM / remaining at 0.5 h, 60 μM / remaining at 1 h, 60 μM: pH 8, Remaining peak area (%)/elastase
Experimental: FIG. 19. […] At different time point, 25 μL aliquots was taken out, and 10% (v/v) TFA was added to terminate the reaction.
(§1) Mix by centrifugation at 8000 rpm for 30 seconds.
Arrange a certain volume of 0.5 μg/μL elastase solution in another sterile EP. Incubate the EP tubes containing peptides and enzymes at 37° C. for 5 min, and then add 4.5 μL of elastase solution to each EP tube containing peptides and mix well. Start timing and remove 25 μL of reaction solution at 1.5, 3.0, 4.5, 6.0, 9.0, 15.0, 30.0, and 60.0 min later, respectively. Add 3.75 μL of 10% TFA to terminate the reaction and mix well by centrifugation at 8000 rpm for 30 seconds.
Referring to the experimental method in Example 5, in vitro stability of salmon Calcitonin analogs with oral administration activity to the enzymatic hydrolysis by trypsin, chymotrypsin and elastase were performed.
Referring to the experimental method in Example 5, in vitro stability of IL-17A inhibitory peptides towards the enzymatic hydrolysis by trypsin, chymotrypsin and elastase were performed.

trypsin = biological target: T1, trypsin (Bos taurus, UniProt P00760); assay: in vitro
T1 sequence (P00760 24-246): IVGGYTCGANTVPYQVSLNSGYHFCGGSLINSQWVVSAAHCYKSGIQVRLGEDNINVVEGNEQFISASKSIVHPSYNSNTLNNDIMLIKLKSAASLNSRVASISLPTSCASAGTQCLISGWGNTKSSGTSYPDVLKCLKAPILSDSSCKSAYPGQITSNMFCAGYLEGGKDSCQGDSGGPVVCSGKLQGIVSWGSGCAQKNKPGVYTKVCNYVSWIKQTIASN
Summary of the method: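 Remaining RP-HPLC peak area tracks undigested peptide over time. Samples were quenched with 10% TFA at time points between 1.5 and 60 min during 37 °C digestion. Trypsin was added from a 0.05 μg/μL solution after 5 min of thermal equilibration.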

chymotrypsin = chymotrypsin (Bos taurus, UniProt P00766); assay: in vitro; details: for Remaining peak area (%)/chymotrypsin: 0 h
Summary of the method: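 RP-HPLC peak area tracked intact peptide after 37 °C digestion with chymotrypsin (0.05 μg/μL solution, 5 min preincubation). Samples were withdrawn at 1.5-60.0 min and stopped with 10% TFA.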

DPP-IV = DPP-IV (Homo sapiens, UniProt P27487); assay: Tolerance of GLP-1 and its analogues to DPP-IV (RP-HPLC remaining peak area); format: in vitro ADME; details: peptide 25 μM, DPP-IV 0.5 ng/μL, 37° C.; for Remaining peak area (%)/DPP-IV: 0.0 h; for remaining at 0.5 h, 25 μM / remaining at 2 h, 25 μM / remaining at 4 h, 25 μM / remaining at 8 h, 25 μM / remaining at 12 h, 25 μM: isolated DPP-IV enzyme in buffer, pH 8
Experimental: as §1
(2) Arrange a certain volume of 0.005 μg/μL DPP-IV solution in another sterile EP.

[1] = Stability of GLP-1 and its analogues in human serum; details: 25% (v/v) human serum; for Remaining peak area (%)/human serum: 0.0 h, peptide 0.03 mM, 37° C.; for remaining at 0.5 h, 0.03 mM / remaining at 2 h, 0.03 mM / remaining at 4 h, 0.03 mM / remaining at 8 h, 0.03 mM / remaining at 12 h, 0.03 mM: human, pH 7
[2] = isolated enzyme chymotrypsin, pH 7.8, Remaining peak area (%)/chymotrypsin

Sequence of DPP-IV (P27487 whole entry, species assumed): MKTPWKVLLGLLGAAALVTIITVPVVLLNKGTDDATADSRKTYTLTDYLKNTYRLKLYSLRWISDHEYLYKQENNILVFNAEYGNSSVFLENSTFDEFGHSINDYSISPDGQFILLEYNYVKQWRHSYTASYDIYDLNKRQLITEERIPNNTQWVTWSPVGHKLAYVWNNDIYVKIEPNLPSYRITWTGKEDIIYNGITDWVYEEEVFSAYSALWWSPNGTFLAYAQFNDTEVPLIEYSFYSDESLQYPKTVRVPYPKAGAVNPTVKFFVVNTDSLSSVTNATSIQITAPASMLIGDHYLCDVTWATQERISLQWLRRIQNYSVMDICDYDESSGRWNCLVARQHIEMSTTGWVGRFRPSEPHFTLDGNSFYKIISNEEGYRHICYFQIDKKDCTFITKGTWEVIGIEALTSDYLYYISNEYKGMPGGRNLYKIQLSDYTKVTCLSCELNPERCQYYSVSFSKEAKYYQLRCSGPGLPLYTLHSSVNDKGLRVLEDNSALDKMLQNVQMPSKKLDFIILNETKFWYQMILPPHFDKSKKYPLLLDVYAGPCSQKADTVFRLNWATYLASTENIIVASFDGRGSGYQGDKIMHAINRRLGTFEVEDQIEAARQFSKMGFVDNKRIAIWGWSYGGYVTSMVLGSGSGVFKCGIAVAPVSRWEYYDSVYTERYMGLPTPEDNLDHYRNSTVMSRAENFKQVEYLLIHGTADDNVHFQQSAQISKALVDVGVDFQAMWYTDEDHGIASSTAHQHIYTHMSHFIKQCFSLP
Sequence of elastase (P00772 27-266): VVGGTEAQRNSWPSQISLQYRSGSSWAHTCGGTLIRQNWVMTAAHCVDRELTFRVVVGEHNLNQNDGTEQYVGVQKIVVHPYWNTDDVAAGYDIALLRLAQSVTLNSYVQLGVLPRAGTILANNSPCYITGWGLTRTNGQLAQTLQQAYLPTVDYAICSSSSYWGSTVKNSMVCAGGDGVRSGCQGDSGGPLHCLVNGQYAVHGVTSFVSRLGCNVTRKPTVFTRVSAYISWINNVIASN

remaining at 0.025 h, 60 μM (elastase; isolated enzyme elastase) [%]	remaining at 0.05 h, 60 μM (elastase; isolated enzyme elastase) [%]	remaining at 0.075 h, 60 μM (elastase; isolated enzyme elastase) [%]	remaining at 0.1 h, 60 μM (elastase; isolated enzyme elastase) [%]	remaining at 0.15 h, 60 μM (elastase; isolated enzyme elastase) [%]	remaining at 0.25 h, 60 μM (elastase; isolated enzyme elastase) [%]	remaining at 0.5 h, 60 μM (elastase; isolated enzyme elastase) [%]	remaining at 1 h, 60 μM (elastase; isolated enzyme elastase) [%]	Compound	stability towards elastase hydrolysis (in words) (elastase)	stability towards chymotrypsin hydrolysis (in words) (chymotrypsin)	Remaining peak area (%)/chymotrypsin (chymotrypsin) [%]	remaining at 0.025 h, 60 μM (chymotrypsin; [2]) [%]	remaining at 0.05 h, 60 μM (chymotrypsin; [2]) [%]	remaining at 0.1 h, 60 μM (chymotrypsin; [2]) [%]	remaining at 0.15 h, 60 μM (chymotrypsin; [2]) [%]	Remaining peak area (%)/DPP-IV (DPP-IV) [%]	remaining at 0.5 h, 25 μM (DPP-IV) [%]	remaining at 2 h, 25 μM (DPP-IV) [%]	remaining at 4 h, 25 μM (DPP-IV) [%]	remaining at 8 h, 25 μM (DPP-IV) [%]	other results
								CC[C@H](C)[C@H](N)C(=O)N[C@@H](Cc1c[nH]cn1)C(=O)N[C@H](C(=O)N[C@H](C(=O)N[C@H](C(=O)N1CCC[C@H]1C(=O)N[C@@H](C)C(=O)N[C@@H](CC(=O)O)C(=O)N[C@@H](CC(C)C)C(=O)N[C@@H](Cc1c[nH]c2ccccc12)C(=O)N[C@@H](CC(=O)O)C(=O)N[C@@H](Cc1c[nH]c2ccccc12)C(=O)N[C@H](C(=O)N[C@@H](CC(N)=O)C(=O)O)[C@@H](C)CC)[C@@H](C)CC)[C@@H](C)O)C(C)C [17A, reference compound]	unstable towards chymotrypsin and elastase	unstable towards chymotrypsin and elastase	100.0 ± 0.0	68.8 ± 5.5	59.2 ± 6.3	41.4 ± 4.5	24.3 ± 1.2						stability towards trypsin hydrolysis (in words) (trypsin): very stable towards trypsin; remaining at 0.075 h, 60 μM (chymotrypsin; [2]): 46.2 ± 5.2%
								CC[C@H](C)[C@H](NC(=O)CNC(=O)[C@@H]1CCCN1C(=O)[C@@H](NC(=O)CNC(=O)[C@H](CO)NC(=O)CNC(=O)[C@@H](NC(=O)[C@H](CC(N)=O)NC(=O)[C@@H](NC(=O)[C@H](CCCNC(=N)N)NC(=O)[C@@H]1CCCN1C(=O)[C@H](Cc1ccc(O)cc1)NC(=O)[C@@H](NC(=O)[C@H](CCC(N)=O)NC(=O)[C@H](CC(C)C)NC(=O)[C@H](CCCCN)NC(=O)[C@H](Cc1c[nH]cn1)NC(=O)[C@H](C)NC(=O)[C@H](CCC(=O)O)NC(=O)[C@H](CCC(N)=O)NC(=O)[C@H](CO)NC(=O)[C@H](CC(C)C)NC(=O)[C@H](CCCCN)NC(=O)CNC(=O)[C@H](CC(C)C)NC(=O)CNC(=O)[C@@H]1CSSC[C@H](N)C(=O)N[C@@H](CO)C(=O)N[C@@H](CC(N)=O)C(=O)N[C@@H](CC(C)C)C(=O)N[C@@H](CO)C(=O)N[C@@H]([C@@H](C)O)C(=O)N1)[C@@H](C)O)[C@@H](C)O)[C@@H](C)O)[C@@H](C)O)C(=O)N[C@H]1CSSC[C@@H](C(=O)N[C@@H](CCC(N)=O)C(=O)O)NC(=O)[C@H]([C@@H](C)CC)NC(=O)[C@@H]2CCCN2C(=O)[C@@H]2CCCN2C(=O)[C@H]([C@@H](C)CC)NC(=O)[C@H](CO)NC(=O)[C@H](C)NC(=O)[C@H]([C@@H](C)O)NC1=O [Cal-EC]	resistant to the corresponding protease degradation	certain tolerance to chymotrypsin	100.0 ± 0.0	95.4	31.3	29.3 ± 1.4	27.8 ± 0.2						remaining at 0.25 h, 60 μM (chymotrypsin; [2]): 22.3%; remaining at 0.5 h, 60 μM (chymotrypsin; [2]): 21.4%; remaining at 1 h, 60 μM (chymotrypsin; [2]): 19.3%
73.1 ± 5	73.8 ± 2.8	70.4 ± 2	68.6 ± 2.4	66.9 ± 3.9	62.1 ± 4.3	58.4 ± 4.6	44.5 ± 0.9	CC[C@H](C)[C@H](NC(=O)[C@H](Cc1ccccc1)NC(=O)[C@H](CCC(=O)O)NC(=O)[C@H](CCCCN)NC(=O)[C@H](C)NC(=O)[C@H](C)NC(=O)[C@H](CCC(N)=O)NC(=O)CNC(=O)[C@H](CCC(=O)O)NC(=O)[C@H](CC(C)C)NC(=O)[C@H](Cc1ccc(O)cc1)NC(=O)[C@H](CO)NC(=O)[C@H](CO)NC(=O)[C@@H](NC(=O)[C@H](CC(=O)O)NC(=O)[C@H](CO)NC(=O)[C@@H](NC(=O)[C@H](Cc1ccccc1)NC(=O)[C@@H](NC(=O)CNC(=O)[C@H](CCC(=O)O)NC(=O)[C@H](C)NC(=O)[C@H](Cc1c[nH]cn1)NC(=O)CNC(=O)CNC(=O)[C@@H](NC(=O)[C@@H]1CCCN1C(=O)[C@@H](NC(=O)CN)[C@@H](C)CC)[C@@H](C)CC)[C@@H](C)O)[C@@H](C)O)C(C)C)C(=O)N[C@@H](C)C(=O)N[C@@H](Cc1c[nH]c2ccccc12)C(=O)N[C@@H](CC(C)C)C(=O)N[C@H](C(=O)N[C@@H](CCCCN)C(=O)NCC(=O)N[C@@H](CCCNC(=N)N)C(=O)NCC(=O)NCC(=O)N[C@@H](CCCCN)C(=O)NCC(=O)N[C@@H](CC(C)C)C(=O)N[C@H]1CSSC[C@@H](C(=O)N[C@@H](Cc2ccc(O)cc2)C(=O)O)NC(=O)[C@H](CCC(N)=O)NC(=O)[C@@H]2CCCN2C(=O)[C@@H]2CCCN2C(=O)[C@H]([C@@H](C)CC)NC(=O)[C@H](CO)NC(=O)[C@H](C)NC(=O)[C@H]([C@@H](C)O)NC1=O)C(C)C [D-GLP-1-EC1]								100.0 ± 0.0	82.5 ± 0.6	81.2 ± 3.9	84 ± 2.2	82.5 ± 1.6	remaining at 12 h, 25 μM (DPP-IV): 83.5 ± 0.5%; Remaining peak area (%)/human serum [1]: 100.0 ± 0.0%; serum stability (in words) [1]: more stable in serum; remaining at 0.5 h, 0.03 mM [1]: 73.7 ± 3.7%; remaining at 2 h, 0.03 mM [1]: 63.5 ± 4.8%; remaining at 4 h, 0.03 mM [1]: 46.6 ± 6.4%; remaining at 8 h, 0.03 mM [1]: 42.4 ± 3.5%; remaining at 12 h, 0.03 mM [1]: 27.4 ± 0.3%
93.2 ± 2.4	88.9 ± 1.6	83.3 ± 1	82.7 ± 4.6	79.8 ± 2.2	72.5 ± 1.6	66.1 ± 2.1	49.5 ± 1.1	CC[C@H](C)[C@H](NC(=O)[C@H](Cc1ccccc1)NC(=O)[C@H](CCC(=O)O)NC(=O)[C@H](CCCCN)NC(=O)[C@H](C)NC(=O)[C@H](C)NC(=O)[C@H](CCC(N)=O)NC(=O)CNC(=O)[C@H](CCC(=O)O)NC(=O)[C@H](CC(C)C)NC(=O)[C@H](Cc1ccc(O)cc1)NC(=O)[C@H](CO)NC(=O)[C@H](CO)NC(=O)[C@@H](NC(=O)[C@H](CC(=O)O)NC(=O)[C@H](CO)NC(=O)[C@@H](NC(=O)[C@H](Cc1ccccc1)NC(=O)[C@@H](NC(=O)CNC(=O)[C@H](CCC(=O)O)NC(=O)[C@H](C)NC(=O)[C@H](Cc1c[nH]cn1)NC(=O)CNC(=O)CNC(=O)[C@@H](NC(=O)[C@@H]1CCCN1C(=O)[C@@H](NC(=O)CN)[C@@H](C)CC)[C@@H](C)CC)[C@@H](C)O)[C@@H](C)O)C(C)C)C(=O)N[C@@H](C)C(=O)N[C@@H](Cc1c[nH]c2ccccc12)C(=O)N[C@@H](CC(C)C)C(=O)N[C@H](C(=O)N[C@@H](CCCCN)C(=O)NCC(=O)N[C@@H](CCCNC(=N)N)C(=O)NCC(=O)NCC(=O)N[C@@H](CCCCN)C(=O)NCC(=O)N[C@@H](CC(C)C)C(=O)N[C@H]1CSSC[C@@H](C(=O)N[C@@H](CCC(N)=O)C(=O)O)NC(=O)[C@H]([C@@H](C)CC)NC(=O)[C@@H]2CCCN2C(=O)[C@@H]2CCCN2C(=O)[C@H]([C@@H](C)CC)NC(=O)[C@H](CO)NC(=O)[C@H](C)NC(=O)[C@H]([C@@H](C)O)NC1=O)C(C)C [D-GLP-1-EC12]								100.0 ± 0.0	93.4 ± 0.8	92.3 ± 3	91.7 ± 0.6	93.3 ± 0.2	Remaining peak area (%)/elastase (elastase; isolated enzyme elastase, 1 h, 60 μM, pH 8): about 45%; remaining at 12 h, 25 μM (DPP-IV): 95.1 ± 1.4%; Remaining peak area (%)/human serum [1]: 100.0 ± 0.0%; serum stability (in words) [1]: more stable in serum; remaining at 0.5 h, 0.03 mM [1]: 86.9 ± 3.8%; remaining at 2 h, 0.03 mM [1]: 79.9 ± 6.2%; remaining at 4 h, 0.03 mM [1]: 73.9 ± 1.6%; remaining at 8 h, 0.03 mM [1]: 72.9 ± 8.2%; remaining at 12 h, 0.03 mM [1]: 53.5 ± 3.7%
